These results are taken from patent publication US20240390331A1, “ORAL BENDAMUSTINE FORMULATIONS” (TUBE Pharmaceuticals GmbH, priority 2017, published 2024).

Data set [1] can be described thus: PK of bendamustine capsule formulations vs 60 min IV infusion in beagle dogs, cross over (Example 7). As to conditions: dog, plasma. An excerpt:
As bioanalytical method a fast and reliable method was used to determine bendamustine and its main metabolite γ-hydroxybendamustine (M3 metabolite) simultaneously in plasma of different species (Srinivas N R et al., Drug Res (Stuttg), 2016, 66(7), 351-356; Chandrashekar D V et al., Drug Res (Stuttg), 2017, doi: 10.1055/s-0043-108124).
The oral bioavailability and the PK profile of formulations of bendamustine with 2-hydroxypropyl-β-cyclodextrin and β-cyclodextrin were compared in beagle dogs.
Capsules with an amount of bendamustine hydrochloride for each of the two formulations to reach a dose of 12 mg/kg were administered to beagle dogs using a cross over design and compared to 60 min IV infusion administration. Capsule formulations were stored between 2-8° C. The respective IV formulation was prepared fresh immediately prior to dosing.

For data set [2] the following is noted: bendamustine itself, Preiss R et al. 1985; cited from earlier work.

The AUC is concentration integrated over time. A lower AUC goes with less exposure. One may read the Cmax as the highest concentration seen after dosing. In data set [1], `Cl.Cn1c(CCCC(=O)O)nc2cc(N(CCCl)CCCl)ccc21` [bendamustine, 4-(5-(bis-(2-chloro-ethyl)-amino)-1-methyl-1H-benzimidazol-2-yl)-butyric acid hydrochloride] came in with an AUC of 3800 ng·h/mL and a Cmax of 4300 ng/mL. Moreover, the oral bioavailability entry in data set [2] is recorded as “about 56%”.
